In PubChem BioAssay (NCI):
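Values below derive from 48-hour exposures of cells grown in 96-well plates, with endpoints linearly interpolated between the two concentrations bracketing the appropriate inhibition level. GI50 = concentration required for 50% inhibition of growth. At the TGI there is no net growth.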

Experiments:
Assay in all cases: NCI anticancer screen, dose series, 48 h
[1] = test system: SF-268 CNS
[2] = test system: HCC-2998 colon
[3] = test system: OVCAR-3 ovarian
[4] = test system: U251 CNS
[5] = test system: NCI-H460 lung
[6] = test system: K-562 leukemia
[7] = test system: MALME-3M melanoma
[8] = test system: SK-MEL-2 melanoma
[9] = test system: DU-145 prostate
[10] = test system: PC-3 prostate

SMILES: Nc1nc(N)c(-c2ccc(Cl)cc2)c(CCC(=O)Nc2cccc(C(F)(F)F)c2)n1
- TGI [1]: > 100 µM
- TGI [2]: > 100 µM
- TGI [3]: > 100 µM
- TGI [4]: > 100 µM
- TGI [5]: > 100 µM
- TGI [6]: > 100 µM
- TGI [7]: > 100 µM
- TGI [8]: > 100 µM

SMILES: Cc1ccc2[nH]c(=O)c(C(C#N)c3ccccc3)nc2c1 (stereo not drawn)
- TGI [1]: > 100 µM
- TGI [2]: > 100 µM
- TGI [3]: > 100 µM
- TGI [4]: 84.5 µM
- TGI [5]: > 100 µM
- TGI [6]: > 100 µM
- TGI [7]: > 100 µM
- TGI [8]: 65.4 µM

SMILES: CN=S(=O)(C[C@]1(O)CC2OC1C1OC(C)(C)OC21)c1ccccc1 (stereo partly drawn)
- TGI [1]: > 100 µM
- TGI [2]: > 100 µM
- TGI [3]: > 100 µM
- TGI [4]: > 100 µM
- TGI [5]: > 100 µM
- TGI [6]: > 100 µM
- TGI [7]: > 100 µM
- TGI [8]: > 100 µM

SMILES: C=CCN(N=O)C(=O)N(CCC)CCCCC(NC(C)=O)C(=O)NCc1ccccc1 (stereo not drawn)
- TGI [1]: > 100 µM
- TGI [3]: > 100 µM
- TGI [4]: > 100 µM
- TGI [5]: > 100 µM
- TGI [6]: > 100 µM
- TGI [7]: > 100 µM
- TGI [8]: > 100 µM

SMILES: CCOC(=O)C1=C(C)N(NC(=O)c2ccccc2)C2(O)CCCC12C(=O)OCC (stereo not drawn)
- TGI [1]: > 100 µM
- TGI [2]: > 100 µM
- TGI [3]: > 100 µM
- TGI [4]: > 100 µM
- TGI [5]: > 100 µM
- TGI [6]: > 100 µM
- TGI [7]: > 100 µM
- TGI [8]: > 100 µM

SMILES: CCOC(=O)/C=C1\Nc2ccccc2-n2nnnc21
- TGI [1]: > 100 µM
- TGI [2]: > 100 µM
- TGI [3]: > 100 µM
- TGI [4]: 64.5 µM
- TGI [5]: > 100 µM
- TGI [6]: > 100 µM
- TGI [7]: > 100 µM
- TGI [8]: > 100 µM

SMILES: COc1ccc2c(c1)[n+]([O-])c(-c1nc3ccccc3s1)c(N)[n+]2[O-]
- TGI [3]: > 100 µM
- TGI [4]: > 100 µM
- TGI [5]: > 100 µM
- TGI [6]: > 100 µM
- TGI [7]: > 100 µM
- TGI [8]: > 100 µM

SMILES: Cc1ccc(S(=O)(=O)N/N=C(\C(=O)Nc2cccc([N+](=O)[O-])c2)c2nc3ccc([N+](=O)[O-])cc3[nH]c2=O)cc1
- TGI [1]: > 100 µM
- TGI [2]: 69.9 µM
- TGI [3]: > 100 µM
- TGI [4]: > 100 µM
- TGI [5]: > 100 µM
- TGI [6]: > 100 µM
- TGI [7]: > 100 µM
- TGI [8]: > 100 µM

SMILES: CN(CCC(=O)O)S(=O)(=O)c1ccccc1
- TGI [1]: > 100 µM
- TGI [9]: > 100 µM
- TGI [3]: > 100 µM
- TGI [4]: > 100 µM
- TGI [5]: > 100 µM
- TGI [6]: > 100 µM
- TGI [7]: > 100 µM
- TGI [8]: > 100 µM
- TGI [10]: > 100 µM

SMILES: Cn1c2cccc3nnc4cccc(c4c32)n1C
- TGI [1]: > 100 µM
- TGI [2]: > 100 µM
- TGI [3]: > 100 µM
- TGI [4]: > 100 µM
- TGI [5]: > 100 µM
- TGI [6]: > 100 µM
- TGI [7]: > 100 µM
- TGI [8]: > 100 µM

SMILES: Cc1c(CCl)c(=O)oc2c(C)c3occ(CCl)c(=O)c3cc12
- TGI [1]: 71.7 µM
- TGI [2]: > 100 µM
- TGI [3]: > 100 µM
- TGI [4]: > 100 µM
- TGI [5]: > 100 µM
- TGI [6]: 23.6 µM
- TGI [7]: > 100 µM
- TGI [8]: > 100 µM

SMILES: O=C(CC1(O)C(=O)Nc2c(Cl)cc(Cl)cc21)c1ccc2ccccc2c1 (stereo not drawn)
- TGI [1]: 31.8 µM
- TGI [3]: 18.6 µM
- TGI [4]: 18.7 µM
- TGI [5]: 18.1 µM
- TGI [6]: 18.3 µM
- TGI [7]: 19.7 µM
- TGI [8]: 16.3 µM

SMILES: CN1CCN(Cc2ccc(Nc3ncc(Cl)c(Nc4ccccc4S(=O)(=O)N(C)C)n3)cc2)CC1
- GI50 [1]: 0.0997 µM
- TGI [1]: 1.02 µM
- GI50 [9]: 0.0516 µM
- TGI [9]: > 100 µM
- GI50 [3]: 0.061 µM
- TGI [3]: > 100 µM
- GI50 [4]: 0.038 µM
- TGI [4]: 1.46 µM
- GI50 [5]: < 0.0131 µM
- TGI [5]: 0.198 µM
- GI50 [6]: 0.0386 µM
- TGI [6]: > 100 µM
- GI50 [7]: 0.092 µM
- TGI [7]: 0.379 µM
- GI50 [8]: 0.0458 µM
- TGI [8]: 0.172 µM
- GI50 [10]: 0.0731 µM
- TGI [10]: > 100 µM

SMILES: CCN(CC)CCOc1cc2c(C(=O)OC)c(C)oc2cc1C(C)=O
- GI50 [1]: 13.6 µM
- TGI [1]: 32.6 µM
- GI50 [2]: 15.7 µM
- TGI [2]: 29.3 µM
- GI50 [3]: 45.1 µM
- TGI [3]: > 100 µM
- GI50 [4]: 2.75 µM
- TGI [4]: 10.7 µM
- GI50 [5]: 29.9 µM
- TGI [5]: 91.8 µM
- GI50 [6]: 4.7 µM
- TGI [6]: 29.2 µM
- GI50 [8]: 33.3 µM
- TGI [8]: > 100 µM
- GI50 [10]: 3.97 µM
- TGI [10]: 13.7 µM

SMILES: CCN(CC)c1ccc2c(c1)N=C1N=CC=CN1C2(c1ccc(N(C)C)cc1)c1ccc(N(C)C)cc1
- TGI [1]: 27.3 µM
- TGI [2]: 13.2 µM
- TGI [3]: 6.54 µM
- TGI [4]: 16 µM
- TGI [5]: 22.2 µM
- TGI [6]: 5.96 µM
- TGI [7]: 27.4 µM
- TGI [8]: 31.1 µM

SMILES: Clc1ccc2nc(CCSCCc3nc4ccc(Cl)cc4[nH]3)[nH]c2c1
- TGI [2]: 31.7 µM
- TGI [4]: 26.8 µM
- TGI [5]: 31.7 µM
- TGI [6]: 38.3 µM
- TGI [8]: 28.8 µM

SMILES: O=C(O)/C(Cl)=C(\Cl)C(=O)Nc1ccccc1
- TGI [1]: > 100 µM
- TGI [2]: > 100 µM
- TGI [3]: > 100 µM
- TGI [4]: > 100 µM
- TGI [5]: > 100 µM
- TGI [6]: > 100 µM
- TGI [7]: > 100 µM
- TGI [8]: > 100 µM

SMILES: CC12CC3CC(C)(C1)CC(N=[N+]=[N-])(C3)C2
- TGI [1]: > 100 µM
- TGI [2]: > 100 µM
- TGI [3]: > 100 µM
- TGI [4]: > 100 µM
- TGI [5]: > 100 µM
- TGI [6]: > 100 µM
- TGI [7]: > 100 µM
- TGI [8]: > 100 µM

SMILES: O=C(NCC#CCO)C(F)(F)F
- TGI [1]: > 100 µM
- TGI [2]: > 100 µM
- TGI [4]: > 100 µM
- TGI [5]: > 100 µM
- TGI [7]: > 100 µM
- TGI [8]: > 100 µM

SMILES: Cc1c(Cl)ccc2c1NC(=O)C2(O)C1Cc2ccccc2C1=O (stereo not drawn)
- TGI [1]: > 100 µM
- TGI [2]: > 100 µM
- TGI [3]: > 100 µM
- TGI [4]: > 100 µM
- TGI [5]: > 100 µM
- TGI [6]: > 100 µM
- TGI [7]: > 100 µM
- TGI [8]: > 100 µM

SMILES: COc1ccccc1NC(=O)C1=C(C)NC(C)=C(C(=O)Nc2ccccc2OC)C1c1ccccc1OC
- TGI [1]: > 100 µM
- TGI [2]: > 100 µM
- TGI [3]: > 100 µM
- TGI [4]: > 100 µM
- TGI [5]: > 100 µM
- TGI [6]: > 100 µM
- TGI [7]: > 100 µM
- TGI [8]: > 100 µM

SMILES: CCCC(=O)NNc1[nH]c(-c2ccc(OC)cc2)cc1C(=O)OCC
- GI50 [1]: 14.6 µM
- TGI [1]: 31 µM
- GI50 [9]: 21.7 µM
- TGI [9]: 45.6 µM
- GI50 [3]: 15.5 µM
- TGI [3]: 31.1 µM
- GI50 [4]: 29.5 µM
- TGI [4]: > 100 µM
- GI50 [5]: 46.6 µM
- TGI [5]: > 100 µM
- GI50 [6]: 9.61 µM
- TGI [6]: > 100 µM
- GI50 [7]: 14.5 µM
- TGI [7]: 29.2 µM
- GI50 [8]: 4.59 µM
- TGI [8]: 8.48 µM
- GI50 [10]: 19.4 µM
- TGI [10]: 41.4 µM

SMILES: CC1C(=O)N(C)C2(CO)C(=O)O[C@H](C)C12O (stereo partly drawn)
- TGI [1]: > 100 µM
- TGI [2]: > 100 µM
- TGI [3]: > 100 µM
- TGI [4]: > 100 µM
- TGI [6]: > 100 µM
- TGI [7]: > 100 µM
- TGI [8]: > 100 µM
